Data: ChEMBL document CHEMBL3112465 (Eur J Med Chem, 2014)
Active and inactive are the calls of the source. The rule behind the calls is not given here.

Assays:
[1] = biological target: T1, Prostaglandin G/H synthase 2 (Homo sapiens, UniProt P35354); set-up: species or system Blood
T1 sequence (P35354 whole entry): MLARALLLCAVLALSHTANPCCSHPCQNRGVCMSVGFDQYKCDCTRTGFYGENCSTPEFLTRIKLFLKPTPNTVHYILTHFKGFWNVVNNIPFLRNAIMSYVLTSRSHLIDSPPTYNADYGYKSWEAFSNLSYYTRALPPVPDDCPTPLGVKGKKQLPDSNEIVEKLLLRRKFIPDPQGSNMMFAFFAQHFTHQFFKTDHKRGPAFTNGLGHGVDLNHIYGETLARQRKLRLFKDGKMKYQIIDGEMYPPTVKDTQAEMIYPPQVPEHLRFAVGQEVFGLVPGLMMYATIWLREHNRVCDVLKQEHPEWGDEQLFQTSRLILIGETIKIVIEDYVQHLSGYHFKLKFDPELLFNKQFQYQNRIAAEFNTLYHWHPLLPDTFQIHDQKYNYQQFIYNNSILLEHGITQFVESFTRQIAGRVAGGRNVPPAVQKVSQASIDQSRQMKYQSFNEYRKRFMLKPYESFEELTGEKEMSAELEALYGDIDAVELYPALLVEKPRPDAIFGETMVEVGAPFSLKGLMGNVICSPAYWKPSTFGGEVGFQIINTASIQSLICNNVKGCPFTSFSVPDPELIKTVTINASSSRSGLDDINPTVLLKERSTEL

[2] = biological target: Prostaglandin G/H synthase 1 (Homo sapiens, UniProt P23219); set-up: species or system Blood
Rattus norvegicus [3] = assay: Antiinflammatory activity in Wistar rat lambda carrageenan-induced pleurisy model assessed as decrease in exudate volume at 5 mg/kg, ip pretreated for 30 mins followed by lambda carrageenan-challenge measured after 4 hrs relative to control; assay type: functional; settings: route intraperitoneal
Rattus norvegicus [4] = assay: Antiinflammatory activity in Wistar rat lambda carrageenan-induced pleurisy model assessed as decrease in number of leukocytes in pleural space at 20 mg/kg, ip pretreated for 30 mins followed by lambda carrageenan-challenge measured after 4 hrs relative to control; assay type: functional; set-up: scale not given: the % may be the effect or the level left
[5] = Plasma concentration in Wistar rat lambda carrageenan-induced pleurisy model at 5 mg/kg, ip pretreated for 30 mins followed by lambda carrageenan-challenge measured after 4 hrs by SPE-HPLC analysis; assay type: ADME, organism-based; set-up: dose 5 mg/kg, route intraperitoneal
Rattus norvegicus [6] = assay: Antiinflammatory activity in Wistar rat lambda carrageenan-induced pleurisy model assessed as decrease in exudate volume at 20 mg/kg, ip pretreated for 30 mins followed by lambda carrageenan-challenge measured after 4 hrs relative to control; assay type: functional; settings: route intraperitoneal
Rattus norvegicus [7] = assay: Antiinflammatory activity in Wistar rat lambda carrageenan-induced pleurisy model assessed as decrease in number of leukocytes in pleural space at 5 mg/kg, ip pretreated for 30 mins followed by lambda carrageenan-challenge measured after 4 hrs relative to control; assay type: functional; set-up: scale not given: the % may be the effect or the level left
Rattus norvegicus [8] = assay: Antiinflammatory activity in Wistar rat lambda carrageenan-induced pleurisy model assessed as decrease in number of leukocytes in pleural space at 10 mg/kg, ip pretreated for 30 mins followed by lambda carrageenan-challenge measured after 4 hrs relative to control; assay type: functional; set-up: scale not given: the % may be the effect or the level left
[9] = Plasma concentration in Wistar rat lambda carrageenan-induced pleurisy model at 20 mg/kg, ip pretreated for 30 mins followed by lambda carrageenan-challenge measured after 4 hrs by SPE-HPLC analysis; assay type: ADME, organism-based; set-up: dose 20 mg/kg, route intraperitoneal
[10] = Plasma concentration in Wistar rat lambda carrageenan-induced pleurisy model at 10 mg/kg, ip pretreated for 30 mins followed by lambda carrageenan-challenge measured after 4 hrs by SPE-HPLC analysis; assay type: ADME, organism-based; set-up: dose 10 mg/kg, route intraperitoneal
Rattus norvegicus [11] = assay: Antiinflammatory activity in Wistar rat lambda carrageenan-induced pleurisy model assessed as decrease in exudate volume at 10 mg/kg, ip pretreated for 30 mins followed by lambda carrageenan-challenge measured after 4 hrs relative to control; assay type: functional; settings: route intraperitoneal
[12] = Retention time of the compound by chromatographic analysis; assay type: physicochemical

Chain of Prostaglandin G/H synthase 1 (P23219 whole entry): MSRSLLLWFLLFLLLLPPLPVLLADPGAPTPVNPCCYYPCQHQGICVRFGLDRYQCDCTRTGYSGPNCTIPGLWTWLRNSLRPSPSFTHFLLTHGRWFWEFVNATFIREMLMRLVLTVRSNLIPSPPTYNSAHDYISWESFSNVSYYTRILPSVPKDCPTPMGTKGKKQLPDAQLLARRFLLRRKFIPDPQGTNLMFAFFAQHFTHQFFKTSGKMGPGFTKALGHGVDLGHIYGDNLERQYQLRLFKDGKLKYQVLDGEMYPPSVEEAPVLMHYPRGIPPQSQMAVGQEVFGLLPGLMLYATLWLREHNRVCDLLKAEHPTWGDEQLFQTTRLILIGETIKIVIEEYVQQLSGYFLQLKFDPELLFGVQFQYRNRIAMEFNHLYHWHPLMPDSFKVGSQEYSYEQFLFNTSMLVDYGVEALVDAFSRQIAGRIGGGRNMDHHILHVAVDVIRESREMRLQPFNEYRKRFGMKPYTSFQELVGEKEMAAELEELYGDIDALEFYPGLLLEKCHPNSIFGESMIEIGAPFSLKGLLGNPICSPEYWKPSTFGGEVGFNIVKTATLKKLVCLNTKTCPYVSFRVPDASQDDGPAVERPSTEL

O=S(=O)(Nc1ccncc1Nc1cccc(F)c1)C(F)(F)F
IC50 [1]: 240 nM
IC50 [2]: 440 nM

O=S(=O)(Nc1ccncc1Nc1ccccc1)C(F)(F)F
inhibition in vivo at 5 mg/kg (Rattus norvegicus [3]): 25.4%
Activity (Rattus norvegicus [4]; route intraperitoneal): 51.7%
concentration at 4 h [5]: 720 ng/mL
inhibition in vivo at 20 mg/kg (Rattus norvegicus [6]): 72.2%
Activity (Rattus norvegicus [7]; route intraperitoneal): 24.82%
Activity (Rattus norvegicus [8]; route intraperitoneal): 34.83%
concentration at 4 h [9]: 3620 ng/mL
concentration at 4 h [10]: 1540 ng/mL
inhibition in vivo at 10 mg/kg (Rattus norvegicus [11]): 55.7%

Cc1ccc(Nc2cnccc2NS(C)(=O)=O)cc1C
IC50 [1]: 30700 nM
IC50 [2]: 3280 nM

O=S(=O)(Nc1ccncc1Nc1ccc(F)c(Br)c1)C(F)(F)F
inhibition in vivo at 5 mg/kg (Rattus norvegicus [3]): 21.9%
Activity (Rattus norvegicus [4]; route intraperitoneal): 69.78%
concentration at 4 h [5]: 11400 ng/mL
inhibition in vivo at 20 mg/kg (Rattus norvegicus [6]): 66.5%
Activity (Rattus norvegicus [7]; route intraperitoneal): 11.13%
Activity (Rattus norvegicus [8]; route intraperitoneal): 41.22%
IC50 [1]: 2270 nM
IC50 [2]: 1350 nM
concentration at 4 h [9]: 59100 ng/mL
concentration at 4 h [10]: 34100 ng/mL
inhibition in vivo at 10 mg/kg (Rattus norvegicus [11]): 42.6%

Cc1ccc(Nc2cnccc2NS(=O)(=O)C(F)(F)F)cc1C
IC50 [1]: 550 nM
IC50 [2]: 710 nM

CS(=O)(=O)Nc1ccncc1Nc1ccc(F)cc1
IC50 [1]: 20700 nM
IC50 [2]: 2090 nM

O=S(=O)(Nc1ccncc1Nc1ccccc1)C1CC1
IC50 [1]: 35100 nM
IC50 [2]: 3610 nM

CS(=O)(=O)Nc1ccc([N+](=O)[O-])cc1Oc1ccccc1 [NIMESULIDE]
inhibition in vivo at 5 mg/kg (Rattus norvegicus [3]): 31.1%
Activity (Rattus norvegicus [4]; route intraperitoneal): 72.93%
concentration at 4 h [5]: 17000 ng/mL
Activity (Rattus norvegicus [7]; route intraperitoneal): 23.08%
Activity (Rattus norvegicus [8]; route intraperitoneal): 52.05%
concentration at 4 h [9]: 75200 ng/mL
concentration at 4 h [10]: 41300 ng/mL
inhibition in vivo at 10 mg/kg (Rattus norvegicus [11]): 48.4%

O=S(=O)(Nc1ccncc1Nc1ccc(Cl)cc1)C(F)(F)F
Activity (Rattus norvegicus [4]; route intraperitoneal): 72.47%
concentration at 4 h [5]: 4610 ng/mL
Activity (Rattus norvegicus [7]; route intraperitoneal): 44.15%
Activity (Rattus norvegicus [8]; route intraperitoneal): 54.44%
concentration at 4 h [9]: 27300 ng/mL
concentration at 4 h [10]: 9490 ng/mL

O=S(=O)(Nc1ccncc1Nc1ccc(O)c(Br)c1)C(F)(F)F
IC50 [1]: > 100000 nM
IC50 [2]: 4210 nM
Retention_time [12]: 10.34 min

O=S(=O)(C1CC1)N(c1ccncc1Nc1ccccc1)S(=O)(=O)C1CC1
IC50 [1]: 56800 nM
IC50 [2]: 19600 nM

O=S(=O)(Nc1ccncc1Nc1cccc(I)c1)C(F)(F)F
IC50 [1]: 260 nM
IC50 [2]: 1930 nM

CCCC(C)C1(CC)C(=O)NC(=O)NC1=O (centres undefined) [PENTOBARBITAL]
Retention_time [12]: 11.71 min

Cc1cc(C)cc(Nc2cnccc2NS(=O)(=O)C(F)(F)F)c1
IC50 [1]: 1040 nM
IC50 [2]: 4110 nM

Cc1cc(Nc2cnccc2NS(=O)(=O)C(F)(F)F)ccc1Br
IC50 [1]: 300 nM
IC50 [2]: 2320 nM

O=S(=O)(Nc1ccncc1Nc1ccc(F)cc1)C(F)(F)F
IC50 [1]: 300 nM
IC50 [2]: 270 nM

O=S(=O)(Nc1ccncc1Nc1cccc(Br)c1)C(F)(F)F
Activity (Rattus norvegicus [4]; route intraperitoneal): 28.52%
concentration at 4 h [5]: 300 ng/mL
Activity (Rattus norvegicus [7]; route intraperitoneal): 27.1%
Activity (Rattus norvegicus [8]; route intraperitoneal): 27.07%
concentration at 4 h [9]: 820 ng/mL
Retention_time [12]: 13.65 min
concentration at 4 h [10]: 430 ng/mL

O=S(=O)(Nc1ccncc1Nc1ccc(F)c(Cl)c1)C(F)(F)F
inhibition in vivo at 5 mg/kg (Rattus norvegicus [3]): 36.6%
Activity (Rattus norvegicus [4]; route intraperitoneal): 64.71%
concentration at 4 h [5]: 13000 ng/mL
inhibition in vivo at 20 mg/kg (Rattus norvegicus [6]): 73.5%
Activity (Rattus norvegicus [7]; route intraperitoneal): 14.74%
Activity (Rattus norvegicus [8]; route intraperitoneal): 48.23%
IC50 [1]: 1570 nM
IC50 [2]: 1740 nM
concentration at 4 h [9]: 54600 ng/mL
concentration at 4 h [10]: 30000 ng/mL
inhibition in vivo at 10 mg/kg (Rattus norvegicus [11]): 67.5%

Cc1ccc(Nc2cnccc2NS(=O)(=O)C(F)(F)F)cc1Br
inhibition in vivo at 5 mg/kg (Rattus norvegicus [3]): 19.4%
Activity (Rattus norvegicus [4]; route intraperitoneal): 44.06%
concentration at 4 h [5]: 170 ng/mL
inhibition in vivo at 20 mg/kg (Rattus norvegicus [6]): 71%
Activity (Rattus norvegicus [7]): inactive
Activity (Rattus norvegicus [8]; route intraperitoneal): 26.24%
IC50 [1]: 90 nM
IC50 [2]: 1400 nM
concentration at 4 h [9]: 920 ng/mL
concentration at 4 h [10]: 180 ng/mL
inhibition in vivo at 10 mg/kg (Rattus norvegicus [11]): 57.1%

Cc1cc(C)cc(Nc2cnccc2NS(C)(=O)=O)c1
IC50 [1]: > 100000 nM
IC50 [2]: 14900 nM

CS(=O)(=O)Nc1ccncc1Nc1cccc(Cl)c1
Activity (Rattus norvegicus [4]): inactive
concentration at 4 h [5]: 260 ng/mL
Activity (Rattus norvegicus [7]): inactive
Activity (Rattus norvegicus [8]): inactive
concentration at 4 h [9]: 1860 ng/mL
concentration at 4 h [10]: 690 ng/mL

Cc1cccc(Nc2cnccc2NS(=O)(=O)C(F)(F)F)c1
Activity (Rattus norvegicus [4]; route intraperitoneal): 50.18%
concentration at 4 h [5]: 100 ng/mL
Activity (Rattus norvegicus [7]; route intraperitoneal): 17.07%
Activity (Rattus norvegicus [8]; route intraperitoneal): 24.98%
concentration at 4 h [9]: 410 ng/mL
concentration at 4 h [10]: 200 ng/mL

O=S(=O)(Nc1ccncc1Nc1ccc(O)cc1)C(F)(F)F
IC50 [1]: > 100000 nM
IC50 [2]: 18100 nM

O=S(=O)(Nc1ccncc1Nc1cccc(Cl)c1)C(F)(F)F
Activity (Rattus norvegicus [4]; route intraperitoneal): 16.41%
concentration at 4 h [5]: 560 ng/mL
Activity (Rattus norvegicus [7]): inactive
Activity (Rattus norvegicus [8]): inactive
concentration at 4 h [9]: 1400 ng/mL
concentration at 4 h [10]: 680 ng/mL

Cc1ccc(-c2cc(C(F)(F)F)nn2-c2ccc(S(N)(=O)=O)cc2)cc1 [CELECOXIB]
inhibition in vivo at 5 mg/kg (Rattus norvegicus [3]): 15.7%
Activity (Rattus norvegicus [4]; route intraperitoneal): 28.87%
concentration at 4 h [5]: 620 ng/mL
inhibition in vivo at 20 mg/kg (Rattus norvegicus [6]): 42.1%
Activity (Rattus norvegicus [7]; route intraperitoneal): 24.02%
Activity (Rattus norvegicus [8]; route intraperitoneal): 23.05%
concentration at 4 h [9]: 2680 ng/mL
concentration at 4 h [10]: 1130 ng/mL
inhibition in vivo at 10 mg/kg (Rattus norvegicus [11]): 27.3%

CS(=O)(=O)Nc1ccncc1Nc1cccc(F)c1
IC50 [1]: 10000 nM
IC50 [2]: 1370 nM

N#Cc1cccc(Nc2cnccc2NS(=O)(=O)C(F)(F)F)c1
IC50 [1]: 36200 nM
IC50 [2]: 6650 nM

Cc1ccc(Nc2cnccc2NS(=O)(=O)C(F)(F)F)cc1Cl
IC50 [1]: 1960 nM
IC50 [2]: 1470 nM
